From ChEMBL document CHEMBL1154825, “Schweinfurthins I and J from Macaranga schweinfurthii” (2010)

Key:
Assay type in all cases: functional
A498 = assay: Growth inhibition of human A498 cells
T47D = assay: Growth inhibition of human T47D cells
ACHN = assay: Growth inhibition of human ACHN cells
SN12C = assay: Growth inhibition of human SN12C cells
OVCAR-3 = assay: Growth inhibition of human OVCAR-3 cells
PC-3 = assay: Growth inhibition of human PC3 cells
CCRF-CEM = assay: Growth inhibition of human CCRF-CEM cells
UACC-62 = assay: Growth inhibition of human UACC62 cells
UO-31 = assay: Growth inhibition of human UO31 cells
MDA-MB-231 = assay: Growth inhibition of human MDA-MB-231 cells
NCI-H322M = assay: Growth inhibition of human NCI-H322M cells
786-0 = assay: Growth inhibition of human 786-0 cells
MDA-MB-435 = assay: Growth inhibition of human MDA-MB-435 cells
COLO 205 = assay: Growth inhibition of human COLO205 cells
U-251 = assay: Growth inhibition of human U251 cells
NCI/ADR-RES = assay: Growth inhibition of human NCI/ADR-RES cells
HOP-62 = assay: Growth inhibition of human HOP62 cells
OVCAR-5 = assay: Growth inhibition of human OVCAR5 cells
HCT-116 = assay: Growth inhibition of human HCT116 cells
RXF 393 = assay: Growth inhibition of human […] cells
SW-620 = assay: Growth inhibition of human SW620 cells
Malme-3M = assay: Growth inhibition of human MALME-3M cells
HCC 2998 = assay: Growth inhibition of human HCC2998 cells
[1] = Growth inhibition of human Hs 578T cells
NCI-H23 = assay: Growth inhibition of human NCI-H23 cells
SNB-19 = assay: Growth inhibition of human SNB19 cells
MDA-MB-468 = assay: Growth inhibition of human MDA-MB-468 cells
RPMI-8226 = assay: Growth inhibition of human RPMI8226 cells
NCI-H460 = assay: Growth inhibition of human NCI-H460 cells
SK-OV-3 = assay: Growth inhibition of human SKOV3 cells
A549 = assay: Growth inhibition of human A549 cells
K562 = assay: Growth inhibition of human K562 cells
HT-29 = assay: Growth inhibition of human HT-29 cells
MCF7 = assay: Growth inhibition of human MCF7 cells
SK-MEL-2 = assay: Growth inhibition of human SK-MEL-2 cells
SK-MEL-28 = assay: Growth inhibition of human SK-MEL-28 cells
HOP-92 = assay: Growth inhibition of human HOP92 cells
IGROV-1 = assay: Growth inhibition of human IGROV1 cells
DU-145 = assay: Growth inhibition of human DU145 cells
OVCAR-4 = assay: Growth inhibition of human OVCAR4 cells
HCT-15 = assay: Growth inhibition of human HCT15 cells
NCI-H522 = assay: Growth inhibition of human NCI-H522 cells
SF-295 = assay: Growth inhibition of human SF295 cells
[2] = read-out: pLC50 (the source's name) (converted)

CC(C)=CCC/C(C)=C/Cc1cc(/C=C/c2cc(O)cc(O)c2)ccc1O [SCHWEINFURTHIN I]
GI50 (A498): 5.01 µM
LC50 (A498): 47.9 µM
TGI (A498; read-out: pTGI (converted)): 20.4 µM
GI50 (T47D): 10.2 µM
LC50 (T47D): 81.3 µM
TGI (T47D; read-out: pTGI (converted)): 28.8 µM
GI50 (ACHN): 10 µM
CC50 (ACHN; [2]): 49 µM
TGI (ACHN; read-out: pTGI (converted)): 22.4 µM
GI50 (SN12C): 13.5 µM
CC50 (SN12C; [2]): 61.7 µM
TGI (SN12C; read-out: pTGI (converted)): 28.8 µM
GI50 (OVCAR-3): 12.3 µM
LC50 (concentration killing 50% of cells) (OVCAR-3): 50.1 µM
TGI (OVCAR-3; read-out: pTGI (converted)): 25.1 µM
GI50 (PC-3): 6.61 µM
LC50 (PC-3): 49 µM
TGI (PC-3; read-out: pTGI (converted)): 20.4 µM
GI50 (CCRF-CEM): 5.37 µM
LC50 (CCRF-CEM): 95.5 µM
TGI (CCRF-CEM; read-out: pTGI (converted)): 25.7 µM
GI50 (UACC-62): 10.7 µM
CC50 (UACC-62; [2]): 51.3 µM
TGI (UACC-62; read-out: pTGI (converted)): 23.4 µM
GI50 (UO-31): 6.76 µM
LC50 (concentration killing 50% of cells) (UO-31): 47.9 µM
TGI (UO-31; read-out: pTGI (converted)): 20.9 µM
GI50 (MDA-MB-231): 10.7 µM
LC50 (MDA-MB-231): 63.1 µM
TGI (MDA-MB-231; read-out: pTGI (converted)): 26.3 µM
GI50 (NCI-H322M): 11.5 µM
LC50 (NCI-H322M): 51.3 µM
TGI (NCI-H322M; read-out: pTGI (converted)): 24.5 µM
GI50 (786-0): 3.55 µM
CC50 (786-0; [2]): 37.2 µM
TGI (786-0; read-out: pTGI (converted)): 12 µM
GI50 (MDA-MB-435): 7.24 µM
CC50 (MDA-MB-435; [2]): 53.7 µM
TGI (MDA-MB-435; read-out: pTGI (converted)): 21.9 µM
GI50 (COLO 205): 18.2 µM
LC50 (COLO 205): 64.6 µM
TGI (COLO 205; read-out: pTGI (converted)): 34.7 µM
GI50 (U-251): 5.5 µM
LC50 (U-251): 51.3 µM
TGI (U-251; read-out: pTGI (converted)): 20 µM
GI50 (NCI/ADR-RES): 9.33 µM
CC50 (NCI/ADR-RES; [2]): 58.9 µM
TGI (NCI/ADR-RES; read-out: pTGI (converted)): 24 µM
GI50 (HOP-62): 14.5 µM
LC50 (HOP-62): 53.7 µM
TGI (HOP-62; read-out: pTGI (converted)): 27.5 µM
GI50 (OVCAR-5): 17.4 µM
LC50 (OVCAR-5): 72.4 µM
TGI (OVCAR-5; read-out: pTGI (converted)): 35.5 µM
GI50 (HCT-116): 11 µM
CC50 (HCT-116; [2]): 50.1 µM
TGI (HCT-116; read-out: pTGI (converted)): 23.4 µM
GI50 (RXF 393): 1780 nM
CC50 (RXF 393; [2]): 7.76 µM
TGI (RXF 393; read-out: pTGI (converted)): 3.72 µM
GI50 (SW-620): 15.8 µM
LC50 (SW-620): > 100 µM
TGI (SW-620; read-out: pTGI (converted)): 43.7 µM
GI50 (Malme-3M): 11.7 µM
LC50 (Malme-3M): 63.1 µM
TGI (Malme-3M; read-out: pTGI (converted)): 26.9 µM
GI50 (HCC 2998): 15.5 µM
LC50 (HCC 2998): 58.9 µM
TGI (HCC 2998; read-out: pTGI (converted)): 30.2 µM
GI50 [1]: 4.07 µM
LC50 [1]: > 100 µM
TGI ([1]; read-out: pTGI (converted)): 26.3 µM
GI50 (NCI-H23): 11.7 µM
LC50 (NCI-H23): 61.7 µM
TGI (NCI-H23; read-out: pTGI (converted)): 26.9 µM
GI50 (SNB-19): 12.6 µM
LC50 (SNB-19): 56.2 µM
TGI (SNB-19; read-out: pTGI (converted)): 26.9 µM
GI50 (MDA-MB-468): 9.12 µM
CC50 (MDA-MB-468; [2]): 53.7 µM
TGI (MDA-MB-468; read-out: pTGI (converted)): 22.9 µM
GI50 (RPMI-8226): 3.98 µM
LC50 (RPMI-8226): 91.2 µM
TGI (RPMI-8226; read-out: pTGI (converted)): 19.1 µM
GI50 (NCI-H460): 10.2 µM
LC50 (NCI-H460): 85.1 µM
TGI (NCI-H460; read-out: pTGI (converted)): 29.5 µM
GI50 (SK-OV-3): 15.5 µM
CC50 (SK-OV-3; [2]): 55 µM
TGI (SK-OV-3; read-out: pTGI (converted)): 29.5 µM
GI50 (A549): 10.5 µM
LC50 (A549): 66.1 µM
TGI (A549; read-out: pTGI (converted)): 26.3 µM
GI50 (K562): 5.01 µM
LC50 (K562): 72.4 µM
TGI (K562; read-out: pTGI (converted)): 22.4 µM
GI50 (HT-29): 12.6 µM
LC50 (HT-29): 69.2 µM
TGI (HT-29; read-out: pTGI (converted)): 29.5 µM
GI50 (MCF7): 10 µM
LC50 (MCF7): 63.1 µM
TGI (MCF7; read-out: pTGI (converted)): 25.1 µM
GI50 (SK-MEL-2): 11.5 µM
LC50 (SK-MEL-2): 56.2 µM
TGI (SK-MEL-2; read-out: pTGI (converted)): 25.7 µM
GI50 (SK-MEL-28): 10.7 µM
CC50 (SK-MEL-28; [2]): 50.1 µM
TGI (SK-MEL-28; read-out: pTGI (converted)): 23.4 µM
GI50 (HOP-92): 12.9 µM
CC50 (HOP-92; [2]): 77.6 µM
TGI (HOP-92; read-out: pTGI (converted)): 31.6 µM
GI50 (IGROV-1): 11.7 µM
CC50 (IGROV-1; [2]): 55 µM
TGI (IGROV-1; read-out: pTGI (converted)): 25.1 µM
GI50 (DU-145): 12.9 µM
LC50 (DU-145): 51.3 µM
TGI (DU-145; read-out: pTGI (converted)): 25.7 µM
GI50 (OVCAR-4): 10 µM
CC50 (OVCAR-4; [2]): 50.1 µM
TGI (OVCAR-4; read-out: pTGI (converted)): 22.4 µM
GI50 (HCT-15): 15.8 µM
LC50 (50% lethal concentration) (HCT-15): > 100 µM
TGI (HCT-15; read-out: pTGI (converted)): 58.9 µM
GI50 (NCI-H522): 11.2 µM
LC50 (NCI-H522): 72.4 µM
TGI (NCI-H522; read-out: pTGI (converted)): 28.2 µM
GI50 (SF-295): 372 nM
LC50 (SF-295): 51.3 µM
TGI (SF-295; read-out: pTGI (converted)): 15.8 µM
